{"source": "paper PMC9304929", "about": "“The Cholesterol-Binding Sequence in Monomeric C-Reactive Protein Binds to the SARS-CoV-2 Spike Receptor-Binding Domain and Blocks Interaction With Angiotensin-Converting Enzyme 2” (Frontiers in Immunology, 2022)", "system": "SARS-CoV-2 spike RBD", "experiment": "Spike RBD-mCRP binding ELISA", "conditions": "His-tagged proteins expressed in E. coli, n = 3", "protocol": "The interactions of the spike-RBD with mCRP or CRP were also examined by enzyme-linked immunosorbent assay (ELISA) using mCRP/CRP-specific mAbs. Briefly, 100 μL of spike-RBD (1μg/mL) in Tris-buffered saline (TBS; 10 mM Tris, 140 mM NaCl, pH 7.4) was added per well to coat in 96-well microplates overnight at 4°C. The wells were then washed three times with TBS containing 0.02% Tween-20 for 5 min and blocked with 1% bovine serum albumin (BSA) in TBS for 1 h at 37°C. Next, mCRP was added and the plates were incubated for 1 h at 37°C. The color was developed by adding tetramethyl benzidine (TMB) to the wells and the color development was stopped with 1 M H2SO4.", "data": [{"substance": "WT mCRP", "values": [{"measurement": "binding of mCRP wild type or mutants to the spike RBD (ELISA)", "value": "bound"}]}]}
